Here are results for one compound from ChEMBL document CHEMBL1142638, “Thalicosides A1-A3, minor cycloartane bisdesmosides from Thalictrum minus” (2000).

SMILES strings stand for the structures.

For assay [1], the system named is Candida albicans. The experiment in a line: Antifungal activity against Candida albicans ATCC 90028 at 1 mg/mL after 24 hrs by spectrophotometry. It counts as functional.
In assay [2] the test system is Staphylococcus aureus. The experiment in a line: Antibacterial activity against Staphylococcus aureus ATCC 6538P at 1 mg/mL after 24 hrs by spectrophotometry. The format is functional.

`CC(C)=CC[C@H](O)[C@@H](C)[C@H]1[C@@H](O)C[C@@]2(C)[C@@H]3CC[C@H]4[C@](C)(CO[C@@H]5O[C@H](CO)[C@@H](O)[C@H](O)[C@H]5O)[C@@H](O[C@@H]5OC[C@H](O)[C@H](O)[C@H]5O)CC[C@@]45C[C@@]35CC[C@]12C` [THALICOSIDE A2]: the Activity in assay [1] worked out at 78.7%; in assay [2], 45.7%.
